{"source": "patent US9149038B2", "about": "“4-amino-6-(heterocyclic)picolinates and 6-amino-2-(heterocyclic)pyrimidine-4-carboxylates and their use as herbicides” (Dow AgroSciences LLC, priority 2013, dated 2015)", "tested_on": "Direct Seeded Rice and weed species", "test": "Postemergence herbicidal activity in direct seeded rice, visual rating after 20-22 days and probit GR20/GR50/GR80/GR90 (Table 14)", "assay_type": "in vivo", "details": "for pest or weed control at 17.5 g/ha / pest or weed control at 35 g/ha / pest or weed control at 70 g/ha: post-emergence, 504 h, postemergence; for pest or weed control at 17.5 g/ha: 17.5 g ai/ha; for pest or weed control at 35 g/ha: 35 g ai/ha; for pest or weed control at 70 g/ha: 70 g ai/ha", "in_short": "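Rice and weeds grown in loam–sand soil (pH about 8.1) in greenhouse to 2nd–3rd true leaf, then sprayed postemergence at 187 L/ha in acetone/DMSO with 1.25% (v/v) Agri-dex crop oil. Injury rated visually 0–100 after 20-22 days versus untreated plants; GR20, GR50, GR80, GR90 obtained by probit analysis across dose rates.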", "key": {"[1]": {"details": "BRAPP (broadleaf signalgrass, Brachiaria platyphylla), read-out: Visual Growth Reduction (%) 21 Days After Application BRAPP"}, "[2]": {"details": "CYPDI (small-flower flatsedge, Cyperus difformis), read-out: Visual Growth Reduction (%) 21 Days After Application CYPDI"}, "[3]": {"details": "CYPES (yellow nutsedge, Cyperus esculentus), read-out: Visual Growth Reduction (%) 21 Days After Application CYPES"}, "[4]": {"details": "CYPIR (rice flatsedge, Cyperus iria), read-out: Visual Growth Reduction (%) 21 Days After Application CYPIR"}, "[5]": {"details": "DIGSA (large crabgrass, Digitaria sanguinalis), read-out: Visual Growth Reduction (%) 21 Days After Application DIGSA"}, "[6]": {"details": "ECHCG (barnyardgrass, Echinochloa crus-galli), read-out: Visual Growth Reduction (%) 21 Days After Application ECHCG"}, "[7]": {"details": "ECHCO (junglerice, Echinochloa colonum), read-out: Visual Growth Reduction (%) 21 Days After Application ECHCO"}, "[8]": {"details": "LEFCH (Chinese sprangletop, Leptochloa chinensis), read-out: Visual Growth Reduction (%) 21 Days After Application LEFCH"}, "[9]": {"details": "ORYSJ (Oryza sativa, rice crop), read-out: Visual Growth Reduction (%) 21 Days After Application ORYSJ"}, "[10]": {"details": "ORYSK (Oryza sativa, rice crop), read-out: Visual Growth Reduction (%) 21 Days After Application ORYSK"}, "[11]": {"details": "SCPJU (Japanese bulrush, Schoenoplectus juncoides Roxb.), read-out: Visual Growth Reduction (%) 21 Days After Application SCPJU"}, "[12]": {"details": "SEBEX (hemp sesbania, Sesbania exaltata), given as number, read-out: Visual Growth Reduction (%) 21 Days After Application SEBEX"}}, "note": "Like-named read-outs stand apart in the source and are kept apart here."}
{"smiles": "Nc1c(F)c(-c2cc3c(cc2F)OC(F)(F)O3)nc(C(=O)O)c1Cl", "note": "[Compound 13]", "values": [{"measurement": "GR50 BRAPP", "setting": "BRAPP (Brachiaria platyphylla), probit analysis, dose for 50 percent growth reduction", "value": 3, "unit": "g ai/ha"}, {"measurement": "GR80 BRAPP", "setting": "BRAPP (Brachiaria platyphylla), probit analysis, dose for 80 percent growth reduction", "value": 5, "unit": "g ai/ha"}, {"measurement": "GR90 BRAPP", "setting": "BRAPP (Brachiaria platyphylla), probit analysis, dose for 90 percent growth reduction", "value": 7, "unit": "g ai/ha"}, {"measurement": "GR50 CYPDI", "setting": "CYPDI (Cyperus difformis), probit analysis, dose for 50 percent growth reduction", "value": 0.04, "unit": "g ai/ha"}, {"measurement": "GR80 CYPDI", "setting": "CYPDI (Cyperus difformis), probit analysis, dose for 80 percent growth reduction", "value": 1, "unit": "g ai/ha"}, {"measurement": "GR90 CYPDI", "setting": "CYPDI (Cyperus difformis), probit analysis, dose for 90 percent growth reduction", "value": 2, "unit": "g ai/ha"}, {"measurement": "GR50 CYPES", "setting": "CYPES (Cyperus esculentus), probit analysis, dose for 50 percent growth reduction", "value": 0.04, "unit": "g ai/ha"}, {"measurement": "GR50 CYPIR", "setting": "CYPIR (Cyperus iria), probit analysis, dose for 50 percent growth reduction", "value": 0.04, "unit": "g ai/ha"}, {"measurement": "GR50 DIGSA", "setting": "DIGSA (Digitaria sanguinalis), probit analysis, dose for 50 percent growth reduction", "value": 0.05, "unit": "g ai/ha"}, {"measurement": "GR80 DIGSA", "setting": "DIGSA (Digitaria sanguinalis), probit analysis, dose for 80 percent growth reduction", "value": 1, "unit": "g ai/ha"}, {"measurement": "GR90 DIGSA", "setting": "DIGSA (Digitaria sanguinalis), probit analysis, dose for 90 percent growth reduction", "value": 6, "unit": "g ai/ha"}, {"measurement": "GR50 ECHCG", "setting": "ECHCG (Echinochloa crus-galli), probit analysis, dose for 50 percent growth reduction", "value": 0.01, "unit": "g ai/ha"}, {"measurement": "GR80 ECHCG", "setting": "ECHCG (Echinochloa crus-galli), probit analysis, dose for 80 percent growth reduction", "value": 1, "unit": "g ai/ha"}, {"measurement": "GR90 ECHCG", "setting": "ECHCG (Echinochloa crus-galli), probit analysis, dose for 90 percent growth reduction", "value": 10, "unit": "g ai/ha"}, {"measurement": "GR50 ECHCO", "setting": "ECHCO (Echinochloa colonum), probit analysis, dose for 50 percent growth reduction", "value": 1, "unit": "g ai/ha"}, {"measurement": "GR80 ECHCO", "setting": "ECHCO (Echinochloa colonum), probit analysis, dose for 80 percent growth reduction", "value": 3, "unit": "g ai/ha"}, {"measurement": "GR90 ECHCO", "setting": "ECHCO (Echinochloa colonum), probit analysis, dose for 90 percent growth reduction", "value": 6, "unit": "g ai/ha"}, {"measurement": "GR50 LEFCH", "setting": "LEFCH (Leptochloa chinensis), probit analysis, dose for 50 percent growth reduction", "value": 14, "unit": "g ai/ha"}, {"measurement": "GR80 LEFCH", "setting": "LEFCH (Leptochloa chinensis), probit analysis, dose for 80 percent growth reduction", "value": 25, "unit": "g ai/ha"}, {"measurement": "GR90 LEFCH", "setting": "LEFCH (Leptochloa chinensis), probit analysis, dose for 90 percent growth reduction", "value": 33, "unit": "g ai/ha"}, {"measurement": "GR20 ORYSJ", "setting": "ORYSJ (Oryza sativa, rice crop), probit analysis, dose for 20 percent growth reduction", "value": 6, "unit": "g ai/ha"}, {"measurement": "GR20 ORYSK", "setting": "ORYSK (Oryza sativa, rice crop), probit analysis, dose for 20 percent growth reduction", "value": 15, "unit": "g ai/ha"}, {"measurement": "GR50 SCPJU", "setting": "SCPJU (Schoenoplectus juncoides Roxb.), probit analysis, dose for 50 percent growth reduction", "value": 0.0001, "unit": "g ai/ha"}, {"measurement": "GR80 SCPJU", "setting": "SCPJU (Schoenoplectus juncoides Roxb.), probit analysis, dose for 80 percent growth reduction", "value": 0.0001, "unit": "g ai/ha"}, {"measurement": "GR90 SCPJU", "setting": "SCPJU (Schoenoplectus juncoides Roxb.), probit analysis, dose for 90 percent growth reduction", "value": 0.0001, "unit": "g ai/ha"}, {"measurement": "GR50 SEBEX", "setting": "SEBEX (Sesbania exaltata), probit analysis, dose for 50 percent growth reduction", "value": 11, "unit": "g ai/ha"}, {"measurement": "GR80 SEBEX", "setting": "SEBEX (Sesbania exaltata), probit analysis, dose for 80 percent growth reduction", "value": 16, "unit": "g ai/ha"}, {"measurement": "GR90 SEBEX", "setting": "SEBEX (Sesbania exaltata), probit analysis, dose for 90 percent growth reduction", "value": 20, "unit": "g ai/ha"}, {"measurement": "pest or weed control at 17.5 g/ha", "setting": "[1]", "value": "95 to 100", "unit": "%"}, {"measurement": "pest or weed control at 35 g/ha", "setting": "[1]", "value": "95 to 100", "unit": "%"}, {"measurement": "pest or weed control at 70 g/ha", "setting": "[1]", "value": "95 to 100", "unit": "%"}, {"measurement": "pest or weed control at 17.5 g/ha", "setting": "[2]", "value": "95 to 100", "unit": "%"}, {"measurement": "pest or weed control at 35 g/ha", "setting": "[2]", "value": "95 to 100", "unit": "%"}, {"measurement": "pest or weed control at 70 g/ha", "setting": "[2]", "value": "95 to 100", "unit": "%"}, {"measurement": "pest or weed control at 17.5 g/ha", "setting": "[3]", "value": "95 to 100", "unit": "%"}, {"measurement": "pest or weed control at 35 g/ha", "setting": "[3]", "value": "95 to 100", "unit": "%"}, {"measurement": "pest or weed control at 70 g/ha", "setting": "[3]", "value": "95 to 100", "unit": "%"}, {"measurement": "pest or weed control at 17.5 g/ha", "setting": "[4]", "value": "95 to 100", "unit": "%"}, {"measurement": "pest or weed control at 35 g/ha", "setting": "[4]", "value": "95 to 100", "unit": "%"}, {"measurement": "pest or weed control at 70 g/ha", "setting": "[4]", "value": "95 to 100", "unit": "%"}, {"measurement": "pest or weed control at 17.5 g/ha", "setting": "[5]", "value": "95 to 100", "unit": "%"}, {"measurement": "pest or weed control at 35 g/ha", "setting": "[5]", "value": "95 to 100", "unit": "%"}, {"measurement": "pest or weed control at 70 g/ha", "setting": "[5]", "value": "95 to 100", "unit": "%"}, {"measurement": "pest or weed control at 17.5 g/ha", "setting": "[6]", "value": "95 to 100", "unit": "%"}, {"measurement": "pest or weed control at 35 g/ha", "setting": "[6]", "value": "85 to 94", "unit": "%"}, {"measurement": "pest or weed control at 70 g/ha", "setting": "[6]", "value": "95 to 100", "unit": "%"}, {"measurement": "pest or weed control at 17.5 g/ha", "setting": "[7]", "value": "95 to 100", "unit": "%"}, {"measurement": "pest or weed control at 35 g/ha", "setting": "[7]", "value": "95 to 100", "unit": "%"}, {"measurement": "pest or weed control at 70 g/ha", "setting": "[7]", "value": "95 to 100", "unit": "%"}, {"measurement": "pest or weed control at 17.5 g/ha", "setting": "[8]", "value": "60 to 74", "unit": "%"}, {"measurement": "pest or weed control at 35 g/ha", "setting": "[8]", "value": "95 to 100", "unit": "%"}, {"measurement": "pest or weed control at 70 g/ha", "setting": "[8]", "value": "95 to 100", "unit": "%"}, {"measurement": "pest or weed control at 17.5 g/ha", "setting": "[9]", "value": "45 to 59", "unit": "%"}, {"measurement": "pest or weed control at 35 g/ha", "setting": "[9]", "value": "85 to 94", "unit": "%"}, {"measurement": "pest or weed control at 70 g/ha", "setting": "[9]", "value": "95 to 100", "unit": "%"}, {"measurement": "pest or weed control at 17.5 g/ha", "setting": "[10]", "value": "0 to 29", "unit": "%"}, {"measurement": "pest or weed control at 35 g/ha", "setting": "[10]", "value": "45 to 59", "unit": "%"}, {"measurement": "pest or weed control at 70 g/ha", "setting": "[10]", "value": "60 to 74", "unit": "%"}, {"measurement": "pest or weed control at 17.5 g/ha", "setting": "[11]", "value": "95 to 100", "unit": "%"}, {"measurement": "pest or weed control at 35 g/ha", "setting": "[11]", "value": "95 to 100", "unit": "%"}, {"measurement": "pest or weed control at 70 g/ha", "setting": "[11]", "value": "95 to 100", "unit": "%"}, {"measurement": "pest or weed control at 17.5 g/ha", "setting": "[12]", "value": 95, "unit": "%"}, {"measurement": "pest or weed control at 35 g/ha", "setting": "[12]", "value": 100, "unit": "%"}, {"measurement": "pest or weed control at 70 g/ha", "setting": "[12]", "value": 100, "unit": "%"}]}
